Assay results from patent US9133140B2, “Cycloalkylamne derivatives” (Daiichi Sankyo Company, Limited, priority 2008, dated 2015).
Counter-ions that a name gives are not always drawn. Like-named read-outs stand apart in the source and are kept apart here.

Tests used:
human CaSR = molecular target: T1, human CaSR (Homo sapiens, UniProt P41180); experiment: Human CaSR activity measurement test (intracellular calcium in TT cells); assay type: cell-based; conditions: [EC50 of test compound]/[EC50 of Compound A], intracellular calcium fluorescence
T1 construct: TT cells are cell lines that express human CaSR; endogenous in cells; host or cells: TT cells (human medullary thyroid carcinoma cell line)
T1 sequence (P41180 20-1078): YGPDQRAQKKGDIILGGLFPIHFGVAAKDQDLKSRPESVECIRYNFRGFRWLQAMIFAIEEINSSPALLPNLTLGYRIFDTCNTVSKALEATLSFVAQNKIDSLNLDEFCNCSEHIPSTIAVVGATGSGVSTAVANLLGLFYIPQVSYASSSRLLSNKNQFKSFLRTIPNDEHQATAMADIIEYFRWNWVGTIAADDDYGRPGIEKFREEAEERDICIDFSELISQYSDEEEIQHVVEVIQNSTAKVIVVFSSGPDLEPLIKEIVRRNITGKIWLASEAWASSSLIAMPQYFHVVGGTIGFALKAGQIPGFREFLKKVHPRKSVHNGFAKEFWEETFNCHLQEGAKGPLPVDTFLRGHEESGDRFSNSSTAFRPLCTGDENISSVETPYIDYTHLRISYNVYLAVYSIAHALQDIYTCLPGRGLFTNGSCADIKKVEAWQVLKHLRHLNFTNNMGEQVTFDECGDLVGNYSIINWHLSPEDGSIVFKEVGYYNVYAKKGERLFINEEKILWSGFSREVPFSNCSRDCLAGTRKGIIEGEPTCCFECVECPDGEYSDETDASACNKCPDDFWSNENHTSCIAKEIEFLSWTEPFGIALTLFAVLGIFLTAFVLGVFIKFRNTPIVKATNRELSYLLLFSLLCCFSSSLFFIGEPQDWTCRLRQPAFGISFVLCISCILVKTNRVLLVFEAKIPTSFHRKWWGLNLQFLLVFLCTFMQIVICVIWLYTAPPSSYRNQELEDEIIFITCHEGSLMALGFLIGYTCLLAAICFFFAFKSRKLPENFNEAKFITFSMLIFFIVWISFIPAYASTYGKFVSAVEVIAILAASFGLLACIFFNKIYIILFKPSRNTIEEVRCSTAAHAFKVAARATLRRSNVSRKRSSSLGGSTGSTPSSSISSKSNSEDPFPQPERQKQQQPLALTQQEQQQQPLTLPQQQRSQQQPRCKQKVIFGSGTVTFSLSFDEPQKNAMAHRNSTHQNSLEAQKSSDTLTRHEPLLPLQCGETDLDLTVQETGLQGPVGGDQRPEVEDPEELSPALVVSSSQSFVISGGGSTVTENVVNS
Description: It is reported that human medullary thyroid carcinoma cell lines TT cells are cell lines that express human CaSR, and when CaSR is activated by extracellular calcium ions or the like, intracellular calcium ion concentration increases (Endocrinology 137: 3842-3848, 1996). Accordingly, an activating action of the test compounds with respect to human CaSR was evaluated by using the change in intracellular calcium concentration of TT cells as an indicator. TT cells were inoculated onto a black well/clear bottom 96 well plate (poly-D-lysine coat: manufactured by BD biosciences), and were cultured for approximately 24 hours in a F-12 Nutrient Mixture (Kaighn's modification) culture media containing 10% calf serum and 0.5% antibiotic antimycotic. […] Then, the plate was allowed to stand for 1 hour at 37° C. Subsequently, the above-mentioned plate was placed onto FlexStation (manufactured by Molecular Device) or FlexStation 3 (manufactured by Molecular Device), and fluorescence intensity before and after treatment with the test compound dissolved in a buffer for measurement (126 mM NaCl, 4 mM KCl, 1 mM MgCl2, 20 mM HEPES (pH 7.4), 5.6 mM glucose, 2 mM CaCl2) was measured. […] Nagano, Pharmacol. […] WO 1996/12697) as a comparative compound, by conducting a similar procedure. From the following equation, the human CaSR activity of each of the test compounds was calculated as the relative activity with respect to Compound A. Relative activity with respect to Compound A=[EC50 of test compound]/[EC50 of Compound A]

[1] = tested on: calcium ion concentration in the blood; experiment: Measurement test for concentration of parathyroid hormone and calcium ion in rat blood; assay type: in vivo; conditions: read-out: reduction of calcium concentration in the blood
Description: Three male SD rats (manufactured by Japan SLC, Inc.) were orally administered with the test compound, and effects on the concentration of parathyroid hormone (PTH) in the blood and concentration of the calcium ion in the blood were studied.
The test compound was administered by dissolving or suspending it in a 0.5% methyl cellulose 400 (MC) solution or 0.5% MC solution containing 10% of ethanol. (In addition, Compound A used in Test Example 1 was administered as a MC suspension by dosage of 30 mg/kg, and was studied as a comparative example.) Blood was collected from the jugular vein under anesthesia with halothane or isoflurane, before administration of the test compound, and 2, 4, 6 or 8 and 24 hours after administration. Calcium ion concentration in the blood was measured using cartridge EG7+(manufactured by Fuso Chemical Co., Ltd.) and i-STAT 300F (manufactured by Fuso Chemical Co., Ltd.). In addition, plasma intact PTH concentration was measured using Rat intact PTH ELISA kit (manufactured by Immutopics).
The transition of calcium ion concentration in the blood over time from before administration to 24 hours after administration of each of the test compounds was plotted, and the decrease in calcium ion concentration in the blood from the value before administration was calculated as an area value.

[2] = male SD rats, oral, 10 mg/kg, 4 hours after administration
[3] = male SD rats, oral, 4 hours after administration

Row | Relative activity with respect to Compound A (human CaSR) | Structure (SMILES) | inhibition in vivo at 10 mg/kg [1, 2] | inhibition in vivo at 0.3 mg/kg [1, 3] | inhibition in vivo at 10 mg/kg ([1]; po, 4 h)
1 | 0.38 | C[C@@H](NC1CC[C@@H](c2ccc(OCC(=O)O)cc2)C1)c1cccc2cc(F)ccc12 (stereo partly drawn) [Example 21, {4-[(1R)-3-{[(1R)-1-(6-Fluoronaphthalen-1-yl)ethyl]amino}cyclopentyl]phenoxy}acetic acid] | ≥ 30% |  | 
2 | 0.30 | C[C@@H](N[C@H]1CC[C@@H](c2cccc(CC(=O)O)c2)C1)c1ccc(F)c2ccccc12 [Example 24, {3-[(1R,3S)-3-{[(1R)-1-(4-Fluoronaphthalen-1-yl)ethyl]amino}cyclopentyl]phenyl}acetic acid hydrochloride] | ≥ 30% | ≥ 20% | 
3 | 0.34 | C[C@@H](N[C@H]1CC[C@@H](c2ccc(CC(=O)O)cc2)C1)c1ccc(F)c2ccccc12 [Example 25, {4-[(1R,3S)-3-{[(1R)-1-(4-Fluoronaphthalen-1-yl)ethyl]amino}cyclopentyl]phenyl}acetic acid hydrochloride] | ≥ 30% | ≥ 20% | 
4 | 0.59 | C[C@@H](N[C@H]1CC[C@@H](c2ccc(CCC(=O)O)cc2)C1)c1ccc(F)c2ccccc12 [Example 27, 3-{4-[(1R,3S)-3-{[(1R)-1-(4-Fluoronaphthalen-1-yl)ethyl]amino}cyclopentyl]phenyl}propanoic acid hydrochloride] |  | ≥ 20% | 
5 | 0.17 | C[C@@H](N[C@H]1CC[C@H](c2ccc(OCC(=O)O)cc2)C1)c1ccc(F)c2ccccc12 [Example 28, {4-[(1S,3S)-3-{[(1R)-1-(4-Fluoronaphthalen-1-yl)ethyl]amino}cyclopentyl]phenoxy}acetic acid] |  | ≥ 20% | 
6 | 0.31 | C[C@@H](N[C@H]1CC[C@H](c2ccc(CCC(=O)O)cc2)C1)c1ccc(F)c2ccccc12 [Example 30, 3-{4-[(1S,3S)-3-{[(1R)-1-(4-Fluoronaphthalen-1-yl)ethyl]amino}cyclopentyl]phenyl}propanoic acid hydrochloride] |  | ≥ 20% | 
7 | 0.36 | C[C@@H](N[C@H]1CC[C@@H](c2ccc(OC(C)(C)C(=O)O)cc2)C1)c1ccc(F)c2ccccc12 [Example 31, 2-{4-[(1R,3S)-3-{[(1R)-1-(4-Fluoronaphthalen-1-yl)ethyl]amino}cyclopentyl]phenoxy}-2-methylpropanoic acid hydrochloride] | ≥ 30% | ≥ 20% | 
8 | 0.15 | C[C@@H](N[C@H]1CC[C@@H](c2ccc(SCC(=O)O)cc2)C1)c1cccc2ccccc12 [Example 36, ({4-[(1R,3S)-3-{[(1R)-1-(Naphthalen-1-yl)ethyl]amino}cyclopentyl]phenyl}thio)acetic acid hydrochloride] | ≥ 30% |  | 

The next lines start with the compound.

Row | Structure (SMILES) | Relative activity with respect to Compound A (human CaSR) | inhibition in vivo at 10 mg/kg [1, 2] | inhibition in vivo at 0.3 mg/kg [1, 3] | inhibition in vivo at 10 mg/kg ([1]; po, 4 h)
9 | C[C@@H](N[C@H]1CC[C@@H](c2ccc(OC(C)(C)C(=O)O)cc2)C1)c1cccc2ccccc12 [Example 11, 2-Methyl-2-{4-[(1R,3S)-3-{[(1R)-1-(naphthalen-1-yl)ethyl]amino}cyclopentyl]phenoxy}propanoic acid hydrochloride] | 0.60 | ≥ 30% |  | 
10 | C[C@@H](N[C@H]1CC[C@@H](c2ccc(OC(C)(C)C(=O)O)c(F)c2)C1)c1cccc2ccccc12 [Example 15, 2-{2-Fluoro-4-[(1R,3S)-3-{[(1R)-1-(naphthalen-1-yl)ethyl]amino}cyclopentyl]phenoxy}-2-methylpropanoic acid hydrochloride] | 0.38 | ≥ 30% |  | 
11 | C[C@@H](N[C@H]1CC[C@@H](c2ccc(OCC(=O)O)cc2)C1)c1ccc(F)c2ccccc12 [Example 17, {4-[(1R,3S)-3-{[(1R)-1-(4-Fluoronaphthalen-1-yl)ethyl]amino}cyclopentyl]phenoxy}acetic acid] | 0.30 | ≥ 30% | ≥ 20% | 
12 | C[C@@H](N[C@H]1CC[C@@H](c2ccc(NCC(=O)O)cc2)C1)c1cccc2ccccc12 [Example 33, N-{4-[(1R,3S)-3-{[(1R)-1-(Naphthalen-1-yl)ethyl]amino}cyclopentyl]phenyl}glycine 0.4 hydrochloride] | 0.23 |  |  | ≥ 30%
13 | C[C@@H](N[C@H]1CC[C@@H](c2ccc(NCCC(=O)O)cc2)C1)c1cccc2ccccc12 [Example 34, N-{4-[(1R,3S)-3-{[(1R)-1-(Naphthalen-1-yl)ethyl]amino}cyclopentyl]phenyl}-β-alanine 0.5 hydrochloride] | 0.26 |  |  | ≥ 30%
